One may read the IC50 as the midpoint of a concentration-inhibition curve.

The experiment relates to A375 pERK. In words: Cellular assay monitoring phosphorylation of ERK (HTRF phospho-ERK Thr202/Tyr204) in A-375 cells. Format: cell-based. The settings on record: Homo sapiens, melanoma derived cell line A-375 (BRAF V600 activating mutation), 1 hour incubation with compound. The procedure: To determine the effect of the MEK inhibitor compounds disclosed herein on cellular MAPK signaling downstream of MEK, an assay monitoring phosphorylation of ERK was used. Melanoma derived cell line A-375, which harbors a BRAF V600 activating mutation was cultured and maintained as specified by the supplier (ATCC: Cat #CRL-1619; American Type Culture Collection; Manassas, VA 20110). Cells were seeded at 8000 cells/well in 24 μL growth media in a 384-well plate and allowed to adhere at 37° C. with 5% CO2 overnight. The following day, compounds were serially diluted into 10-point, 3-fold dilution curves in 384 well plates. Compound was transferred to cell plates using Echo550 such that the final concentration range was 0.508 nM to […] in […] with 0.1% DMSO being used as negative control. Cells were incubated with compounds for 1 hour at 37° C. with […]. Cells were lysed by addition of 8 μL 4× lysis buffer provided with HTRF kit (Advanced phospho-ERK (Thr202/Tyr204) cellular kit; Cisbio; Cat #64AERPEH) plus 1× protease/phosphatase inhibitor cocktail. 20 μL lysate was transferred to HTRF plate followed by 2.5 μL each of anti-ERK1/2-Europium/Terbium Cryptate and anti-phospho-ERK1/2 antibody solutions per manufacturer's instructions and incubated. Specific signal was measured at […] on a Perkin Elmer Envision 2105 and the ratios used to calculate IC50 values within the Dotmatics Knowledge Solutions Studies curve fitting environment (Dotmatics, Bishops Stortford, UK, CM23) and are presented in Table 8.
(In general: TR-FRET usually uses a lanthanide donor and a delayed reading to cut background.)

On to `CC[P@@](C)(=O)c1ccncc1Nc1ccc(I)cc1F` (single isomer, unassigned) [Example 8], for which the IC50 lay in the range of 10 to 100 nM.
On to `CC[P@](C)(=O)c1ccncc1Nc1ccc(I)cc1F` (single isomer, unassigned) [Example 9], for which the IC50 fell in the range of 10 to 100 nM.
Consider `CC[P@@](C)(=O)c1ccncc1Nc1ccc(Br)cc1F` (single isomer, unassigned) [Example 16], for which the IC50 lay in the range of 100 to 1000 nM.
Next, `CC[P@](C)(=O)c1ccncc1Nc1ccc(Br)cc1F` (single isomer, unassigned) [Example 17]: 100 to 1000 nM.
For the compound `C#Cc1ccc(Nc2cnccc2[P@](C)(=O)CC)c(F)c1` (single isomer, unassigned) [Example 19], the IC50 is 100 to 1000 nM.
Turning to `C#Cc1ccc(Nc2cnccc2[P@@](C)(=O)CC)c(F)c1` (single isomer, unassigned) [Example 20], the IC50 is 100 to 1000 nM.
Consider `CP(C)(=O)c1ccncc1Nc1ccc(I)cc1F` [Example 1, 4-(Dimethylphosphoryl)-N-(2-fluoro-4-iodophenyl)pyridin-3-amine], for which the IC50 was > 10 nM.
In the case of `CP(C)(=O)c1ccc(F)cc1Nc1ccc(I)cc1F` [Example 2, 2-(Dimethylphosphoryl)-5-fluoro-N-(2-fluoro-4-iodophenyl)aniline] it was ≤ 1000 nM; in that of `CP(C)(=O)c1ccncc1Nc1ccc(I)c(F)c1F` [Example 3, N-(2,3-Difluoro-4-iodophenyl)-4-(dimethylphosphoryl)pyridin-3-amine], 10 to 100 nM; in that of `CP(C)(=O)c1ccc(F)c(F)c1Nc1ccc(I)cc1F` [Example 4, 6-(Dimethylphosphoryl)-2,3-difluoro-N-(2-fluoro-4-iodophenyl)aniline], ≤ 1000 nM.
`O=P1(c2ccncc2Nc2ccc(I)cc2F)CCCC1` [Example 5, 1-(3-((2-Fluoro-4-iodophenyl)amino)pyridin-4-yl)phospholane 1-oxide]: the IC50 lay in the range of 10 to 100 nM.
On to `CCP(=O)(CC)c1ccncc1Nc1ccc(I)cc1F` [Example 6, 4-(Diethylphosphoryl)-N-(2-fluoro-4-iodophenyl)pyridin-3-amine], for which the IC50 lay in the range of 10 to 100 nM.
With `CCP(C)(=O)c1ccncc1Nc1ccc(I)cc1F` (centres unmarked) [Example 7, 4-[Ethyl(methyl)phosphoryl]-N-(2-fluoro-4-iodophenyl)pyridin-3-amine], the IC50 lay within 10 to 100 nM.
`CP(C)(=O)c1ccncc1Nc1ccc(Br)cc1F` [Example 10, N-(4-Bromo-2-fluorophenyl)-4-(dimethylphosphoryl)pyridin-3-amine]: the IC50 was in the range of 100 to 1000 nM.
Take `CCP(=O)(CC)c1ccncc1Nc1ccc(Br)cc1F` [Example 11, N-(4-bromo-2-fluorophenyl)-4-(diethylphosphoryl)pyridin-3-amine]: the IC50 lay in the range of 100 to 1000 nM.
`O=P1(c2ccncc2Nc2ccc(Br)cc2F)CCCC1` [Example 12, 1-(3-((4-Bromo-2-fluorophenyl)amino)pyridin-4-yl)phospholane 1-oxide]: the IC50 lay within 100 to 1000 nM.
On to `CP(C)(=O)c1c(Cl)cncc1Nc1ccc(I)cc1F` [Example 13, 5-Chloro-4-(dimethylphosphoryl)-N-(2-fluoro-4-iodophenyl)pyridin-3-amine], for which the IC50 is > 10 nM.
In the case of `C#Cc1ccc(Nc2cnccc2P(C)(C)=O)c(F)c1` [Example 14, (3-((4-Ethynyl-2-fluorophenyl)amino)pyridin-4-yl)dimethylphosphine oxide] it was 10 to 100 nM; in that of `C#Cc1ccc(Nc2cnccc2P2(=O)CCCC2)c(F)c1` [Example 15, 1-(3-((4-Ethynyl-2-fluorophenyl)amino)pyridin-4-yl)phospholane 1-oxide], 100 to 1000 nM.
On to `C#Cc1ccc(Nc2cnccc2P(=O)(CC)CC)c(F)c1` [Example 18, 4-(Diethylphosphoryl)-N-(4-ethynyl-2-fluorophenyl)pyridin-3-amine], for which the IC50 lay within 100 to 1000 nM.
Turning to `CP(C)(=O)c1cc(F)ncc1Nc1ccc(I)cc1F` [Example 21, (2-Fluoro-5-((2-fluoro-4-iodophenyl)amino)pyridin-4-yl)dimethylphosphine oxide], the 50% inhibitory concentration (IC50) was in the range of 100 to 1000 nM.
In the case of `CP(C)(=O)c1ccncc1Nc1ccc(I)cc1` [Example 22, 4-(Dimethylphosphoryl)-N-(4-iodophenyl)pyridin-3-amine], the IC50 was in the range of 10 to 100 nM.
On to `CP(C)(=O)c1ccncc1Nc1ccc(C2CC2)cc1F` [Example 23, N-(4-Cyclopropyl-2-fluorophenyl)-4-(dimethylphosphoryl)pyridin-3-amine], for which the IC50 fell in the range of 10 to 100 nM.
In the case of `CP(C)(=O)c1c(F)cncc1Nc1ccc(I)cc1F` [Example 24, 4-(Dimethylphosphoryl)-5-fluoro-N-(2-fluoro-4-iodophenyl)pyridin-3-amine], the IC50 was > 10 nM.
Take `CP(C)(=O)c1ccnc(F)c1Nc1ccc(I)cc1F` [Example 25, (2-Fluoro-3-((2-fluoro-4-iodophenyl)amino)pyridin-4-yl)dimethylphosphine oxide]: the IC50 lay in the range of 10 to 100 nM.
Next, `CP(C)(=O)c1c(F)cncc1Nc1ccc(Br)cc1Cl` [Example 26, N-(4-bromo-2-chlorophenyl)-4-(dimethylphosphoryl)-5-fluoropyridin-3-amine]: > 10 nM; `CP(C)(=O)c1ccncc1Nc1ccc(Br)cc1Cl` [Example 27, N-(4-bromo-2-chlorophenyl)-4-(dimethylphosphoryl) pyridin-3-amine]: 100 to 1000 nM; `CP(C)(=O)c1c(Cl)cncc1Nc1ccc(Br)cc1Cl` [Example 28, N-(4-Bromo-2-chlorophenyl)-5-chloro-4-(dimethylphosphoryl)pyridin-3-amine]: 100 to 1000 nM.
In the case of `CP(C)(=O)c1c(Cl)cncc1Nc1ccc(Br)cc1F` [Example 29, (3-((4-Bromo-2-fluorophenyl)amino)-5-chloropyridin-4-yl)dimethylphosphine oxide] it was 10 to 100 nM; in that of `Cc1cncc(Nc2ccc(I)cc2F)c1P(C)(C)=O` [Example 30, 4-(Dimethylphosphoryl)-N-(2-fluoro-4-iodophenyl)-5-methylpyridin-3-amine], > 10 nM; in that of `C#Cc1ccc(Nc2cncc(F)c2P(C)(C)=O)c(F)c1` [Example 31, 4-(Dimethylphosphoryl)-N-(4-ethynyl-2-fluorophenyl)-5-fluoropyridin-3-amine], 10 to 100 nM.
Turning to `CP(C)(=O)c1c(Cl)cncc1Nc1ccc(C2CC2)cc1F` [Example 32, (3-Chloro-5-((4-cyclopropyl-2-fluorophenyl)amino)pyridin-4-yl)dimethylphosphine oxide], the IC50 is 10 to 100 nM.
